Assay results from patent US20020160986A1, “Compounds having activity as inhibitors of cytochrome P450RAI” (priority 2000, published 2002).

What was measured:
RARγ = target: T1, RARγ (Homo sapiens, UniProt P13631); test: chimeric receptor transactivation assay, RARγ; format: cell-based; conditions: value in parentheses
T1 sequence (P13631 185-419 limits assumed): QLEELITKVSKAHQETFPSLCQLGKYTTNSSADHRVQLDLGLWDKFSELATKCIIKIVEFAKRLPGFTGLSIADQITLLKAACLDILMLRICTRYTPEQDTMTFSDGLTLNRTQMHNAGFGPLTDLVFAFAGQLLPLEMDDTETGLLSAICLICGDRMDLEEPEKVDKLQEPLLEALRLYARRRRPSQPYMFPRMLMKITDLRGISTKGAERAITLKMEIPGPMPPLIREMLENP
Text: (§1) Assays described below measure the ability of a compound to bind to, and/or activate various retinoid receptor subtypes. When in these assays a compound binds to a given receptor subtype and activates the transcription of a reporter gene through that subtype, then the compound is considered an agonist of that receptor subtype. […] In the below described assays the ability of the compounds to bind to RAR60 , RAR62 , RARγ, RXR60 , RXR62 , and RXRγ receptors, and the ability or inability of the compounds to activate transcription of a reporter gene through these receptor subtypes can be tested.
(§2) As far as specific assays are concerned, a chimeric receptor transactivation assay which tests for agonist-like activity in the RAR60 , RARβ, and RARγ, receptor subtypes, and which is based on work published by Feigner P. L. and Holm M. (1989) Focus, 112 is described in detail in U.S. Pat. No. 5,455,265. The specification of U.S. Pat. No. 5,455,265 is hereby expressly incorporated by reference. The numeric results obtained with several preferred compounds of this invention in this assay are shown below in Table 1.
(§3) A holoreceptor transactivation assay and a ligand binding assay which measure the antagonist/agonist like activity of the compounds of the invention, or their ability to bind to the several retinoid receptor subtypes, respectively, are described in published PCT Application No. WO WO93/11755 (particularly on pages 30-33 and 37-41) published on Jun. 24, 1993, the specification of which is also incorporated herein by reference. A detailed experimental procedure for holoreceptor transactivations has been described by Heyman et al. Cell 68,397-406, (1992); Allegretto et al. J. Biol. Chem. 268,26625-26633, and Mangelsdorf et al. The Retinoids: Biology, Chemistry and Medicine, pp 319-349, Raven Press Ltd., New York, which are expressly incorporated herein by reference. The results obtained in this assay are expressed in EC50 numbers, as they are also in the chimeric receptor transactivation assay. The results of ligand binding assay are expressed in Kd numbers. (See Cheng et al. Biochemical Pharmacology Vol. 22 pp 3099-3108, expressly incorporated herein by reference.)

RARβ = target: T2, RARβ (Homo sapiens, UniProt P10826); test: chimeric receptor transactivation assay, RARβ; format: cell-based; conditions: value in parentheses
T2 sequence (P10826 183-417 limits assumed): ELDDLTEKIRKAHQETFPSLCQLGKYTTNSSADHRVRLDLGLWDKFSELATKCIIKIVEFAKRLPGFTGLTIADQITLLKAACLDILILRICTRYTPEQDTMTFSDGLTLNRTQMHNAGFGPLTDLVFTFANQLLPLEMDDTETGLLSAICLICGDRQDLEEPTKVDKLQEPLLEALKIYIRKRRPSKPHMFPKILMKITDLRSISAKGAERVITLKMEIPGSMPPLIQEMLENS
Text: as §1
as §2, with “reference.” for “reference. The numeric results obtained with several preferred compounds of this invention in this assay are shown below in Table 1.”
as §3, with “A detailed experimental procedure for holoreceptor transactivations has been described by Heyman et al. Cell 68,397-406, (1992); Allegretto et al. J. Biol. Chem. 268,26625-26633, and Mangelsdorf et al. The Retinoids: Biology, Chemistry and Medicine, pp 319-349, Raven Press Ltd., New York, which are expressly incorporated herein by reference.” left out

RARα [1] = target: T3, RARα (Homo sapiens, UniProt P10276); test: chimeric receptor transactivation assay, RARα; format: cell-based; conditions: value in parentheses
T3 sequence (P10276 183-417 limits assumed): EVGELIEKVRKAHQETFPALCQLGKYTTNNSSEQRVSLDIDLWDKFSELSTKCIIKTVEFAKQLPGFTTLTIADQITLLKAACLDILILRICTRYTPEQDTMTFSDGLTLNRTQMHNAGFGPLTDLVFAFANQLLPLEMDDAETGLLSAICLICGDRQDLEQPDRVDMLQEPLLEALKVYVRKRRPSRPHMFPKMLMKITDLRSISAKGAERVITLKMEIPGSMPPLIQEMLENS
Text: as §1, §2, §3

RARα [2] = target: T4, RARα (Homo sapiens, UniProt P10276); test: ligand binding assay, RARα; conditions: read-out: RAR α Kd
T4 sequence (P10276 1-462): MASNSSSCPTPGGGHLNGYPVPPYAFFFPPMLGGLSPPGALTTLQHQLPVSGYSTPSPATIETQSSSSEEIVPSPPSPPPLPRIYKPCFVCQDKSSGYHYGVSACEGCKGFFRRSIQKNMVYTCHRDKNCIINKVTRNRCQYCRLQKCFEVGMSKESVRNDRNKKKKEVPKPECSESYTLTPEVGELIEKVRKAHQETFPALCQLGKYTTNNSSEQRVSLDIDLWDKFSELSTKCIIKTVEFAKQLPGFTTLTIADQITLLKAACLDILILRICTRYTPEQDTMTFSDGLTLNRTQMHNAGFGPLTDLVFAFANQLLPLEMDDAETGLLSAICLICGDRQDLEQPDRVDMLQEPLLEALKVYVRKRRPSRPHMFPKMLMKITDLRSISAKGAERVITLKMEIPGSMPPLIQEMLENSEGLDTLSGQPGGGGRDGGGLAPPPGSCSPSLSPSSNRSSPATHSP
Text: as §1
as §3, with “The results obtained in this assay are expressed in EC50 numbers, as they are also in the chimeric receptor transactivation assay. The results of ligand binding assay are expressed in Kd numbers. (See Cheng et al. Biochemical Pharmacology Vol. 22 pp 3099-3108, expressly incorporated herein by reference.)” left out

SMILES	RAR γ (EFFICACY) (RARγ)	RAR β (EFFICACY) (RARβ)	RAR α (EFFICACY) (RARα [1])	Kd (RARα [2]) [µM]
CC1(C)CCC(=O)c2ccc(C#Cc3ccc(CC(=O)O)cc3)cc21 [Compound 5, 4-[(8,8-Dimethyl-5-oxo-5,6,7,8-tetrahydro-naphthalene-2-yl-ethynyl)-phenyl]-acetic acid]	–	(36)	–	–
CC1(C)CC(C)(C)c2cc(C(=O)Oc3ccc(CC(=O)O)cc3)ccc2O1 [Compound 46, 2,2,4,4-Tetramethyl-chroman-6-carboxylic acid 4-(carboxymethyl)phenyl ester]	–	–	–	> 10
Cc1cc(C#Cc2ccc(C(=O)O)cc2)ccc1C1(OC(C)C)CC1 [Compound 85, 4-[4-(1-Isopropoxycyclopropyl)-3-methyl-phenylethynyl]-benzoic acid]	(65)	(77)	(60)	–
Cc1cc(C#Cc2ccc(C(=O)O)cc2)ccc1C1(OCC(C)(C)C)CC1 [Compound 89, 4-[4-[1-(2,2-Dimethylpropyloxy)-cyclopropyl]-3-methyl-phenylethynyl]-benzoic acid]	(46)	(50)	(20)	–
CCc1cc(C#Cc2ccc(C(=O)O)cc2)ccc1C1(OCc2ccccc2)CC1 [Compound 93, 4-[4-(1-Benzyloxycyclopropyl)-3-ethyl-phenylethynyl]-benzoic acid]	(55)	(39)	(114)	–
CCCN(CCC)C1(c2ccc(C#Cc3ccc(C(=O)O)cc3)cc2)CC1 [Compound 110, 4-[4-(1-Dipropylamino-cyclopropyl)-phenylethynyl]-benzoic acid]	(42)	(44)	–	–
O=C(O)c1ccc(C#Cc2ccc(C3(NCc4ccccc4)CC3)cc2)cc1 [Compound 112, 4-[4-(1-Benzylamino-cyclopropyl)-phenylethynyl]-benzoic acid]	–	(37)	–	–

Next, values leading:

RAR γ (EFFICACY) (RARγ)	RAR β (EFFICACY) (RARβ)	RAR α (EFFICACY) (RARα [1])	Kd (RARα [2]) [µM]	SMILES
(52)	(54)	(28)	–	CN(C1CC1)C1CCC(C)(C)c2cc(C#Cc3ccc(C(=O)O)cc3)ccc21 (stereo not drawn) [Compound 3, 4-[(5-Cyclopropyl-methyl-amino)-8,8-dimethyl-5,6,7,8-tetrahydro-naphthalene-2yl-ethynyl]-benzoic acid]
–	(96)	–	–	CN(C1CC1)C1CCC(C)(C)c2cc(C#Cc3ccc(CC(=O)O)cc3)ccc21 (stereo not drawn) [Compound 8, 4-[(5-(Cyclopropyl-methyl-amino)-8,8-dimethyl-5,6,7,8-tetrahydro-naphthalene-2-yl-ethynyl)-phenyl]-acetic acid]
(94)	(86)	(146)	–	CC1(C)CCC(=O)c2ccc(C#Cc3ccc(C(=O)O)c(F)c3)cc21 [Compound 10, 2-Fluoro-4-(818-dimethyl-5-oxo-5,6,7,8-tetrahydro-naphthalen-2yl-ethynyl)-benzoic acid]
(9)	(6.6)	–	–	CN(C1CC1)C1CCC(C)(C)c2cc(C#Cc3ccc(C(=O)O)c(F)c3)ccc21 (stereo not drawn) [Compound 13, 4-[5-(Cyclopropyl-methyl-amino)-8,8-dimethyl-5,6,7.8-tetrahydro-naphthalene-2-yl-ethynyl]-2-fluoro benzoic acid]
(140)	(126)	(207)	–	CC1(C)CC2(CC2)Oc2ccc(C#Cc3ccc(C(=O)O)cc3)cc21 [Compound 40, Benzoic acid, 4-[(3,4-dihydro-4,4-dimethylspiro[2H-1-benzopyran-2,1′-cyclopropane]-6-yl)ethynyl]-]
(116)	(100)	(138)	–	CC1(C)CC2(CC2)Oc2ccc(C#Cc3ccc(C(=O)O)c(F)c3)cc21 [Compound 44, 2-Fluoro-benzoic acid, 4-[(3,4-dihydro-4,4-dimethylspiro[2H-1-benzopyran-2,1′-cyclopropane]-6-yl)ethynyl]-]
(31)	(50)	(10)	–	COC1(c2ccc(C#Cc3ccc(C(=O)O)cc3)cc2)CC1 [Compound 69, 4-[4-(1-Methoxycyclopropyl)-phenylethynyl]-benzoic acid]
(24)	(39)	–	–	CC(C)OC1(c2ccc(C#Cc3ccc(C(=O)O)cc3)cc2)CC1 [Compound 73, 4-[4-(1-Isopropoxycyclopropyl)-phenylethynyl]-benzoic acid]
(67)	(80)	–	–	Cc1cc(C#Cc2ccc(C(=O)O)cc2)ccc1C1(OCc2ccccc2)CC1 [Compound 81, 4-[4-(1-Benzyloxycyclopropyl)-3-methyl-phenylethynyl]-benzoic acid]
(10)	(36)	(15)	–	CCCNC1(c2ccc(C#Cc3ccc(C(=O)O)cc3)cc2)CC1 [Compound 108, 4-[4-(1-Propylamino-cyclopropyl)-phenylethynyl]-benzoic acid]
